Experimental data published in patent US10780139B1, “Hypericum revolutum extract as a vasodilator” (King Abdulaziz University, priority 2020, dated 2020).

Columns and labels:
[1] = test system: PE pre-contracted isolated aorta; test: vasodilating activity, isolated artery technique (PE-precontracted isolated aorta); set-up: species or system Wistar rats; settings: for vasodilation of PE precontracted isolated aortae: isolated compounds 1-10 μM cumulative, vs time control, p<0.05, FIG. 7-8
Protocol: Male Wistar rats 6-8 weeks old (180-200 g) (King Fahd Medical Research Center, King Abdulaziz University, Jeddah, Saudi Arabia) were used in this study. Clear polypropylene cages containing 4 rats each were used to house the animals and provided access to purified water and standard rodent pellets. The animal housing conditions applied were constant involving alternating 12 hours light and dark, a temperature of 22±3° C., a relative humidity of 50-60%, and adequate ventilation. Experimental protocol was approved by the Research Ethical Committee, Faculty of Pharmacy, King Abdulaziz University, Jeddah, Saudi Arabia (approval number 126-1439) and was conducted in accordance with the Saudi Arabia Research Bioethics and Regulations.
All animals used for the purpose of this study received a standard pellet diet and drinking water. Animals were killed by decapitation with rodent guillotine and the descending thoracic aorta was carefully excised and cleaned from fat and connective tissue.
(§1) The vasodilating activities of the methanol extract, fractions, and isolated compounds were studied using the isolated artery technique as previously described (El-Bassossy et al., 2013; El-Bassossy et al., 2016). Briefly, aorta was excised, cleaned of any fats and connective tissue, and cut into 3 mm rings. Each ring was suspended in channels filled with 25 ml of Krebs Henseleit buffer (118 mM NaCl, 4.8 mM KCl, 2.5 mM CaCl2), 1.2 mM MgSO4, 1.2 mM KH2PO4, 25 mM NaHCO3, and 11.1 mM glucose) maintained at 37° C. and continuously aerated with gas consisting of 95% oxygen and 5% carbon dioxide. The buffer solution in the channels was changed every 30 minutes.
(§2) The aortic rings were left to equilibrate for 20 minutes at a resting tension of 1500 mg±50. Primary contraction and relaxation of the aorta were then performed by adding PE (10^−5 M) followed by ACh […]. After the tension was returned to resting state, cumulative concentrations of the total extract, fractions (1-10 μg/ml) or the pure isolated compounds (1-10 μM) were added to the organ bath containing the isolated aortae precontracted with PE (10 μM). The decrease in tension was measured as a measure of vasodilation activities.
(§3) In all experiments, similar PE-precontraction tension was achieved before testing the vasodilating responses.

[2] = test system: PE pre-contracted endothelium-denuded aorta; test: vasodilating activity in endothelium-denuded PE-precontracted isolated aorta; set-up: species or system Wistar rats; settings: isolated compounds, 10 μM, p<0.05; FIG. 7-8
Protocol: as §1, §2
In another set of experiments, endothelium was mechanically denuded in order to investigate its role in the vasodilation effect.
as §3

[3] = test system: vascular NO production (isolated aorta); test: NO production from isolated aorta, fluorescence probe DAF-FM; set-up: species or system Wistar rats; settings: 10 μM; DAF-FM 2.5 μM; 37° C.; FIG. 9
Protocol: Induction of intracellular NO production from the isolated aorta by the total extract, fraction I or the pure isolated compounds was investigated using the fluorescence probe DAF-FM as described in previous work with some modifications (Ghareib et al., 2015). Similar to previous technique, the thoracic aorta was excised, cleaned of fats, and cut into approximately 6 mm pieces. Each piece was added to a separate well in a 96-well black plate, kept in dim light, containing KHB/DAF-FM (2.5 μM) mixture (37° C.) and prepared directly before commencement of the procedure. After 3 minutes, 100 μl were carefully drawn and transferred to the adjacent column of wells after which 10 μM ACh was added to one of the aortic segments and 10 μg/ml of the total extract or fraction I or 10 μM of the pure isolated compounds was added to the other wells. Again after 3 minutes, 100 μl were drawn from the wells with the aortae and transferred to the next column of wells. For the blank, a row was kept without an aorta for each concentration of ACh was treated in the same manner. The fluorescence intensity for the withdrawn volumes (and not the column containing the aortae) was then measured at λex=485 nm and […] with the use of Monochromator SPECTRAMAX® M3 plate reader (Molecular Devices, Sunnyvale, Calif., USA).

[4] = ROS scavenging ability, DPPH; settings: DPPH 240 μM; 1, 3 and 10 μM; 10-minute reaction; FIG. 10
Protocol: The reactive oxygen species (ROS) scavenging ability of fraction I or pure isolated compounds was studied as previously reported with some modifications (Tarkhan et al., 2019). In a 96-well clear plate, the fraction I (1-10 μg/ml) or pure isolated compounds (1-10 μM) in methanol was added to DPPH solution (240 μM) in methanol/tris (1:1 v/v). For the time control (C), methanol was used instead of the fraction or compounds. DPPH was prepared immediately before addition to the plate. The absorbance was measured at 520 nm every minute for 10 minutes with the use of Monochromator SPECTRAMAX® M3 plate reader (Molecular Devices, Sunnyvale, Calif., USA).

Compound	vasodilation of PE precontracted isolated aortae [1]	vasodilation of PE-precontracted isolated aortae ([1]; maximal extent reached, 1-10 μM, FIG. 7B) [%]	effect of endothelial denudation on vasodilation activity [2]	vascular NO production (DAF-FM fluorescence) compared with control [3]	DPPH free radical scavenging activity [4]
CCC(C)C(=O)c1c(O)c(C)c(OCC=C(C)C)c(C(=O)CC(C)C)c1O (stereo not shown) [compound 1, 3,5-dihydroxy-6-methyl-1-[(3-methylbut-2-en-1-yl)oxy]-2-(3-methylbutyryl)-4-(2-methylbutyryl)-benzene]	concentration dependent vasodilation	–	–	–	–
CC(C)=CCC(=O)C1CC23CC(Cl)C(C)(C)OC2(C(O)C=C(C)C)C(=O)C(C(=O)C(C)C)(C3=O)C1(C)C (stereo not shown) [compound 2, 3-chloro-9a-(1-hydroxy-3-methylbut-2-en-1-yl)-8-isobutyryl-2,2,7,7-tetramethyl-6-(4-methylpent-3-enoyl)hexahydro-2H-4a,8-methanocyclohepta[b]pyran-9,10(9aH)-dione]	reached statistical significance at concentrations of 3 and 10 μM	50	completely blocked the vasodilation activity	induced NO production that reached statistical significance	–
CC[C@H](CC[C@@H](C)[C@H]1CC[C@H]2[C@@H]3CC=C4C[C@@H](O)CC[C@]4(C)[C@H]3CC[C@]12C)C(C)C [compound 3, β-sitosterol]	concentration dependent vasodilation	–	completely blocked the vasodilation activity	induced NO production that reached statistical significance	–
COc1cc2c(=O)c3ccccc3oc2c(OC)c1OC [compound 5, 2,3,4-trimethoxy xanthone]	concentration dependent vasodilation	–	blocked the vasodilation activity	–	significant free radical scavenging activity
euxanthone [compound 4]	did not show any significant vasodilation	–	did not have any significant effect	–	–
